# Where two headings read alike, the source gives them in different places.
# Tests used:
# [1] = Release of folate on incubation in neutral solution (ester stability); assay type: physicochemical; conditions: incubated in neutral solution
# human alkyltransferase [2] = biological target: T1, human alkyltransferase (Homo sapiens, UniProt P16455); assay: Inactivation of purified recombinant human alkyltransferase in vitro; assay type: biochemical; conditions: for inactivation of alkyltransferase compared with parent compound: comparison in words
# T1 sequence (P16455 1-207): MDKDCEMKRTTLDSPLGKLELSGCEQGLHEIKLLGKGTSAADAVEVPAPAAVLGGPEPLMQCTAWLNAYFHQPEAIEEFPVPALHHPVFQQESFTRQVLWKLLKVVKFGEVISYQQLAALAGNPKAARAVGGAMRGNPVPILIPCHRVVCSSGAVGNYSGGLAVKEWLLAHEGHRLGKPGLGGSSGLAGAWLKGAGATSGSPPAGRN
# Experimental: ED50 values for the inactivation of purified human alkyltransferase in vitro are obtained as previously described (Nelson et al., J. Med. Chem. 2004, 47, 3887-3891 and Pegg et al., Biochem. Pharmacol. 1997, 53, 1559-1564). Purified recombinant human alkyltransferase is incubated with different concentrations of prodrugs in 0.5 mL of reaction buffer (50 mM Tris-HCl, pH 7.6, 0.1 mM EDTA, 5.0 mM dithiothreitol) containing 50 μg of hemocyanin or 10 μg calf thymus DNA for 30 min at 37° C.
# [3] = test system: human tumor cell extracts; assay: Release of folate from esters by human tumor cell extracts; assay type: in vitro ADME; conditions: 200 μM ester, 2 mg lysate protein, pH 7.4, 37° C
# Experimental: Cells are trypsinized, washed with Hank's balanced salt solution, counted and pelleted. On ice, the cell pellets are resuspended in 50 mM sodium phosphate, 5 mM DTT, pH 7.4 at a concentration of 10^8 cells/ml and disrupted by sonication. The sonicated cells are centrifuged at 12,000×g for 10 min and the supernatant is removed. Complete mini protease inhibitor (Roche, Mannheim Germany) is added as directed by the supplier. Lysate total protein concentration is determined, and the lysates are frozen until used at −20° C. Reactions (600 μL), containing one of the ester substrates (200 μM) and 2 mg of lysate protein in 50 mM phosphate buffer (pH 7.4) are incubated at 37° C. At various times 50 μL, are removed for analysis by HPLC. The amount of folic acid liberated is used to determine the extent of ester hydrolysis.
# The rate of release of folate is about 2.2% per day from 1; 3.2% per day from 2; and 0.9% per day from 3. […] The extent of conversion to folate by human tumor cell extracts can vary slightly according to the cell type with MCF-7 cells showing the highest rate of conversion.
# HT29 cells = assay: Sensitization of HT29 cells to killing by BCNU, colony-forming assay; assay type: cell-based; conditions: RPMI medium, drug 2 h prior to 40 μM BCNU for 2 h
# Experimental: KB, HT29 and A549 cells are grown in RPMI 1640 medium or in RPMI medium lacking folate in the presence of 10% fetal bovine serum. The effect of alkyltransferase inactivators on the sensitivity of cells to BCNU is determined using a colony-forming assay (Wei et al., J. Med. Chem. 2005, 48, 256-261; Nelson et al., J. Med. Chem. 2004, 47, 3887-3891; Chae et al., J. Med. Chem. 1994, 37, 342-347; and Dolan et al., Proc. Natl. Acad. Sci. U.S.A. 1990, 87, 5368-5372). Cells are plated at a density of 10^6 in 25 cm^2 flasks and 24 h later are incubated with different concentrations of potential inhibitors for 2-8 h as indicated before exposure to 20 or 40 μM BCNU for 2 h as previously described (Wei et al., J. Med. Chem. 2005, 48, 256-261; Nelson et al., J. Med. Chem. 2004, 47, 3887-3891). After 2 h, the medium is replaced with fresh medium containing the drug but no BCNU and the cells are left to grow for an additional 16-18 h. The cells are then replated at densities of 250-1000 cells per 25 cm^2 flask and grown for 8 days until discrete colonies have formed. The colonies are washed with 0.9% saline solution, stained with 0.5% crystal violet in ethanol, and counted.
# human alkyltransferase [4] = biological target: T1, human alkyltransferase; conditions: previously published, read-out: ED50 for inactivation of alkyltransferase, cited from earlier work
# [5] = +DNA (10 μg calf thymus DNA), 30 min at 37° C, read-out: ED50 for inactivation of alkyltransferase
# [6] = absence of DNA, read-out: ED50 value in the absence of DNA
rate of release of folate [1],EC50 (human alkyltransferase [2]; [5]),"EC50 (human alkyltransferase [2]; −DNA (hemocyanin), 30 min at 37° C, read-out: ED50 for inactivation of alkyltransferase)",release of folate by extracts from human tumor cells [3],increase of ED50 when DNA is present (human alkyltransferase [2]; +DNA versus −DNA),EC50 (human alkyltransferase [2]; [6]),ED50 lower than O^6-benzylguanine (human alkyltransferase [2]; absence of DNA),ED50 lower than the parent O^6-benzyl-2′-deoxyguanosine (human alkyltransferase [2]; absence of DNA),Compound,inactivation of alkyltransferase compared with parent compound (human alkyltransferase [2]),sensitization of HT29 cells to killing by BCNU (HT29 cells),EC50 (human alkyltransferase [4]; +DNA),EC50 (human alkyltransferase [4]; −DNA)
~0.9 % per day,0.24 µM,0.7 µM,able to release folate,–,–,–,–,"Nc1nc(OCc2ccc(COC(=O)CC[C@H](NC(=O)c3ccc(NCc4cnc5nc(N)[nH]c(=O)c5n4)cc3)C(=O)O)cc2)c2nc[nH]c2n1 [Compound 3, O^6-[4-[(γ-folyl)-oxymethyl]benzyl]guanine]",slightly less effective than the free base parent,–,–,–
~3.2 % per day,3.06 ± 0.18 µM,–,able to release folate,5 fold,0.64 µM,–,–,"Nc1nc(OCc2ccccc2)c2ncn([C@H]3CC(O)[C@@H](COC(=O)CC[C@H](NC(=O)c4ccc(NCc5cnc6nc(N)[nH]c(=O)c6n5)cc4)C(=O)O)O3)c2n1 (stereo partly shown) [Compound 2, O^6-Benzyl-5′-O-[γ-folyl]-2′-deoxyguanosine]",more active than O^6-benzyl-2′-deoxyguanosine itself,able to sensitize HT29 cells to killing by BCNU,–,–
–,–,–,–,–,–,–,–,Nc1nc(OCc2ccccc2)c2ncn([C@H]3C[C@H](O)[C@@H](CO)O3)c2n1 [O^6-benzyl-2′-deoxyguanosine],–,–,40 µM,2 µM
about 2.2 % per day,0.68 µM,–,able to release folate,–,0.016 µM,10 times,100 times,"Nc1nc(OCc2ccccc2)c2ncn([C@H]3CC(OC(=O)CC[C@H](NC(=O)c4ccc(NCc5cnc6nc(N)[nH]c(=O)c6n5)cc4)C(=O)O)[C@@H](CO)O3)c2n1 (stereo partly shown) [Compound 1, O^6-Benzyl-3′-O-[γ-folyl]-2′-deoxyguanosine]",more active than O^6-benzyl-2′-deoxyguanosine itself,able to sensitize HT29 cells to killing by BCNU,–,–

# — patent publication US8188055B2, “Inactivators of O6-alkylguanine-DNA alkyltransferase” (The United States of America, as represented by the …, priority 2007, dated 2012)
